Experiments:
[1] = Agonist activity at CqsS in Vibrio cholerae MM920 harboring deltacqsA, deltaluxQ and pBB1 after 4 hrs by bioluminescence assay; type: functional
Vibrio cholerae = assay: Agonist activity at CqsS in Vibrio cholerae MM920 harboring deltacqsA, deltaluxQ and pBB1 at 50000 nM after 4 hrs by bioluminescence assay relative to CAI-1; type: functional

Row | Compound | EC50 [1] | Emax (Vibrio cholerae)
1 | CCCCCCCCNC(=O)[C@@H](O)CC | 1500 nM | –
2 | CCCCCCCCCC(=O)[C@@H](N)CC | 28 nM | –
3 | CCCCCCCCOC(=O)[C@@H](N)CC | 30 nM | –
4 | CCCCCCCCOC(=O)[C@H](N)CC | 33 nM | –
5 | CCCCC/C=C/COC(=O)[C@@H](O)CC | 39 nM | –
6 | CCCCc1ccc(COC(=O)[C@@H](O)CC)cc1 | 117 nM | –
7 | CCCCC[C@@H]1C[C@H]1COC(=O)C(O)CC (mixture of isomers) | 1200 nM | –
8 | CCCC/C=C\CCOC(=O)C(O)CC (racemic) | 780 nM | –
9 | CCCCCc1ccc(COC(=O)C(O)CC)cc1 (racemic) | 680 nM | –
10 | CCCCCc1cccc(COC(=O)C(O)CC)c1 (racemic) | 1600 nM | –
11 | CCc1ccc(CCCOC(=O)C(O)CC)cc1 (racemic) | 190 nM | –
12 | CCc1cccc(CCCOC(=O)C(O)CC)c1 (racemic) | 9400 nM | –
13 | CCc1ccccc1CCCOC(=O)C(O)CC (racemic) | > 50000 nM | 28%
14 | CCCCOC(=O)C(O)CC (racemic) | > 50000 nM | 23%
15 | CCCCCCOC(=O)C(O)CC (racemic) | 1000 nM | –
16 | CCCCCCCOC(=O)C(O)CC (racemic) | 350 nM | –
17 | CCCCCCCCCOC(=O)C(O)CC (racemic) | 73 nM | –

Row | Compound | EC50 [1] | Emax (Vibrio cholerae)
18 | CCCCCCCCCCOC(=O)C(O)CC (racemic) | 720 nM | –
19 | CCCCCOCCOC(=O)C(O)CC (racemic) | 4400 nM | –
20 | CCOCCOCCOC(=O)C(O)CC (racemic) | > 50000 nM | 31%
21 | CCCCCCOCCOC(=O)C(O)CC (racemic) | 2400 nM | –
22 | CCC(O)C(=O)OCCOCCOCCOC (racemic) | 10000 nM | –
23 | CCCCC/C=C/COC(=O)C(O)CC (racemic) | 54 nM | –
24 | CCCCC/C=C\COC(=O)C(O)CC (racemic) | 710 nM | –
25 | CCCCCC#CCOC(=O)C(O)CC (racemic) | 550 nM | –
26 | CCCC/C=C/CCOC(=O)C(O)CC (racemic) | 770 nM | –
27 | CCCCC#CCCOC(=O)C(O)CC (racemic) | 2000 nM | –
28 | CCC/C=C/CCCOC(=O)C(O)CC (racemic) | 270 nM | –
29 | CCC/C=C\CCCOC(=O)C(O)CC (racemic) | 1800 nM | –
30 | CC/C=C/CCCCOC(=O)C(O)CC (racemic) | 830 nM | –
31 | CC/C=C\CCCCOC(=O)C(O)CC (racemic) | 570 nM | –
32 | CCCCc1ccc(COC(=O)C(O)CC)cc1 (racemic) | 190 nM | –
33 | CCCCc1cccc(COC(=O)C(O)CC)c1 (racemic) | 3700 nM | –
34 | CCCCc1ccccc1COC(=O)C(O)CC (racemic) | > 50000 nM | 11%

— ChEMBL document CHEMBL2177101, “Role of the CAI-1 fatty acid tail in the Vibrio cholerae quorum sensing response” (J Med Chem, 2012)
